Measurements from ChEMBL document CHEMBL4270557, “Discovery of potent anti-convulsant carbonic anhydrase inhibitors: Design, synthesis, in vitro and in vivo appraisal” (Eur J Med Chem, 2018).
pKi: −log10 of the molar value.

Legend:
Mus musculus [1] = assay: Anticonvulsant activity in Swiss albino mouse assessed as protection against subcutaneous PTZ-induced seizures at 100 mg/kg, ip administered 3 hrs prior to PTZ-induction relative to control; format: functional
Rattus norvegicus [2] = assay: Sub-acute toxicity in Wistar rat assessed as creatinine level at 100 mg/kg, po administered daily for 14 days (reference value: 0.62 +/- 0.3 mg/dl); format: organism-based; details: in vivo, 336 h
Rattus norvegicus [3] = assay: Sub-acute toxicity in Wistar rat assessed as SGPT level at 100 mg/kg, po administered daily for 14 days (reference value: 58.8 +/- 18.8 U/L); format: organism-based; details: in vivo, 336 h
Rattus norvegicus [4] = assay: Sub-acute toxicity in Wistar rat assessed as mortality at 100 mg/kg, po administered daily for 14 days; format: organism-based; details: in vivo, 336 h
Mus musculus [5] = assay: Anticonvulsant activity in Swiss albino mouse assessed as protection against maximal electroshock-induced seizures at 100 mg/kg, ip administered 3 hrs prior to 50 mA current induction relative to control; format: functional
Rattus norvegicus [6] = assay: Sub-acute toxicity in Wistar rat assessed as effect on water intake at 100 mg/kg, po administered daily for 14 days; format: organism-based; details: in vivo, 336 h
Mus musculus [7] = assay: Anticonvulsant activity in Swiss albino mouse assessed as protection against subcutaneous PTZ-induced seizures at 30 mg/kg, ip administered 0.5 hrs prior to PTZ-induction relative to control; format: functional
Rattus norvegicus [8] = assay: Sub-acute toxicity in Wistar rat assessed as neutrophils level at 100 mg/kg, po administered daily for 14 days (reference value: 23.4 +/- 2.9%); format: organism-based; details: in vivo, 336 h
Rattus norvegicus [9] = assay: Sub-acute toxicity in Wistar rat assessed as total protein level at 100 mg/kg, po administered daily for 14 days (reference value: […]); format: organism-based; details: in vivo, 336 h
Rattus norvegicus [10] = assay: Sub-acute toxicity in Wistar rat assessed as Na+ level at 100 mg/kg, po administered daily for 14 days (reference value: 143.8 +/- 2.3 mEq/L); format: organism-based; details: in vivo, 336 h
Mus musculus [11] = assay: Anticonvulsant activity in Swiss albino mouse assessed as protection against subcutaneous PTZ-induced seizures at 30 mg/kg, ip administered 3 hrs prior to PTZ-induction relative to control; format: functional
Carbonic anhydrase 1 = Carbonic anhydrase 1 (Homo sapiens, UniProt P00915); assay: Inhibition of human recombinant carbonic anhydrase 1 assessed as CO2 hydration preincubated for 15 mins prior to testing measured for 10 to 100 secs by phenol red dye-based stopped-flow assay
Chain of Carbonic anhydrase 1 (P00915 whole entry): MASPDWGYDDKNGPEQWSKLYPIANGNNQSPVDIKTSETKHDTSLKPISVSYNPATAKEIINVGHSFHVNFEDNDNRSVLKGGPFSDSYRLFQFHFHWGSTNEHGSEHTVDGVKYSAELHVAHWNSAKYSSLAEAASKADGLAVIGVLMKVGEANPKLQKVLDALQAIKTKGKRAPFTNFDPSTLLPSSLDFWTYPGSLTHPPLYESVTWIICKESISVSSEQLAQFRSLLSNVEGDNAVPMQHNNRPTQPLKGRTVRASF

Rattus norvegicus [12] = assay: Sub-acute toxicity in Wistar rat assessed as alkaline phosphatase level at 100 mg/kg, po administered daily for 14 days (reference value: 113.2 +/- 15.1 U/L); format: organism-based; details: in vivo, 336 h
Rattus norvegicus [13] = assay: Anticonvulsant activity in Wistar rat assessed as protection against maximal electroshock-induced seizures at 30 mg/kg, po administered 1 hr prior to 150 mA current induction relative to control; format: functional
Carbonic anhydrase 7 = Carbonic anhydrase 7 (Homo sapiens, UniProt P43166); assay: Inhibition of human recombinant carbonic anhydrase 7 assessed as CO2 hydration preincubated for 15 mins prior to testing measured for 10 to 100 secs by phenol red dye-based stopped-flow assay
Chain of Carbonic anhydrase 7 (P43166 whole entry): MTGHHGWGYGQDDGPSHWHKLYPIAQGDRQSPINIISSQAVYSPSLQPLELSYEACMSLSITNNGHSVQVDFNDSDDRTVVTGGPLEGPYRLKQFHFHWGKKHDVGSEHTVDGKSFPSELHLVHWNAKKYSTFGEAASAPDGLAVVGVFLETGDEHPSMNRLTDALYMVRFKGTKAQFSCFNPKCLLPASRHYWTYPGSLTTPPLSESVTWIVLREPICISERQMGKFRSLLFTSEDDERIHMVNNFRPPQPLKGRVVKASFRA

Homo sapiens [14] = organism: Homo sapiens; assay: Selectivity ratio of Ki for human recombinant carbonic anhydrase 2 to Ki for human recombinant carbonic anhydrase 7
Carbonic anhydrase 9 = Carbonic anhydrase 9 (Homo sapiens, UniProt Q16790); assay: Inhibition of human recombinant carbonic anhydrase 9 assessed as CO2 hydration preincubated for 15 mins prior to testing measured for 10 to 100 secs by phenol red dye-based stopped-flow assay
Rattus norvegicus [15] = assay: Sub-acute toxicity in Wistar rat assessed as Cl- level at 100 mg/kg, po administered daily for 14 days (reference value: 104.1 +/- 6.2 mEq/L); format: organism-based; details: in vivo, 336 h
Mus musculus [16] = assay: Anticonvulsant activity in Swiss albino mouse assessed as protection against maximal electroshock-induced seizures at 30 mg/kg, ip administered 0.5 hrs prior to 50 mA current induction relative to control; format: functional
Rattus norvegicus [17] = assay: Sub-acute toxicity in Wistar rat assessed as phosphorus level at 100 mg/kg, po administered daily for 14 days (reference value: 6.71 +/- 1 mg/dl); format: organism-based; details: in vivo, 336 h
Rattus norvegicus [18] = assay: Sub-acute toxicity in Wistar rat assessed as calcium level at 100 mg/kg, po administered daily for 14 days (reference value: 10.5 +/- 1.5 mg/dl); format: organism-based; details: in vivo, 336 h
Rattus norvegicus [19] = assay: Sub-acute toxicity in Wistar rat assessed as eosinophils level at 100 mg/kg, po administered daily for 14 days (reference value: 2 +/- 1.4%); format: organism-based; details: in vivo, 336 h
Mus musculus [20] = assay: Anticonvulsant activity in Swiss albino mouse assessed as protection against maximal electroshock-induced seizures at 30 mg/kg, ip administered 2 hrs prior to 50 mA current induction relative to control; format: functional
Rattus norvegicus [21] = assay: Sub-acute toxicity in Wistar rat assessed as platelet level at 100 mg/kg, po administered daily for 14 days (reference value: 760.8 +/- 179.9 10^3/mm3); format: organism-based; details: in vivo, 336 h
Homo sapiens [22] = organism: Homo sapiens; assay: Selectivity ratio of Ki for human recombinant carbonic anhydrase 1 to Ki for human recombinant carbonic anhydrase 7
Mus musculus [23] = assay: Anticonvulsant activity in Swiss albino mouse assessed as protection against maximal electroshock-induced seizures at 100 mg/kg, ip administered 0.5 hrs prior to 50 mA current induction relative to control
Rattus norvegicus [24] = assay: Anticonvulsant activity in Wistar rat assessed as protection against maximal electroshock-induced seizures at 30 mg/kg, po administered 2 hrs prior to 150 mA current induction relative to control; format: functional
Rattus norvegicus [25] = assay: Sub-acute toxicity in Wistar rat assessed as hemoglobin level at 100 mg/kg, po administered daily for 14 days (reference value: 13.1 +/- 0.9 g/dl); details: in vivo, 336 h
Mus musculus [26] = assay: Anticonvulsant activity in Swiss albino mouse assessed as protection against maximal electroshock-induced seizures at 100 mg/kg, ip administered 0.5 hrs prior to 50 mA current induction relative to control; format: functional
Homo sapiens [27] = organism: Homo sapiens; assay: Selectivity ratio of Ki for human recombinant carbonic anhydrase 9 to Ki for human recombinant carbonic anhydrase 7
Rattus norvegicus [28] = assay: Sub-acute toxicity in Wistar rat assessed as basophils level at 100 mg/kg, po administered daily for 14 days (reference value: 0.16 +/- 0.4%); format: organism-based; details: in vivo, 336 h
Rattus norvegicus [29] = assay: Anticonvulsant activity in Wistar rat assessed as protection against maximal electroshock-induced seizures at 30 mg/kg, po administered 0.25 hrs prior to 150 mA current induction relative to control; format: functional
Mus musculus [30] = assay: Neurotoxicity in Swiss albino mouse at 30 mg/kg, ip after 30 to 120 mins by rotarod test; format: toxicity, organism-based; details: in vivo
Rattus norvegicus [31] = assay: Anticonvulsant activity in Wistar rat assessed as protection against maximal electroshock-induced seizures at 30 mg/kg, po administered 0.5 hrs prior to 150 mA current induction relative to control; format: functional
Rattus norvegicus [32] = assay: Sub-acute toxicity in Wistar rat assessed as uric acid level at 100 mg/kg, po administered daily for 14 days (reference value: 3.9 +/- 2.8 mg/dl); format: organism-based; details: in vivo, 336 h
Rattus norvegicus [33] = assay: Sub-acute toxicity in Wistar rat assessed as change in behavior at 100 mg/kg, po administered daily for 14 days; format: organism-based; details: in vivo, 336 h

**Q.** How did the Activity (Mus musculus [1]) turn out when Cc1ccc(N2CCN(c3ccc(/C=N/NC(=O)c4ccc(S(N)(=O)=O)cc4)cc3)CC2)c(C)c1 was run?
**A.** The Activity was 83%.

**Q.** And the Activity (Rattus norvegicus [2])?
**A.** Its Activity is 0.75 mg/dL.

**Q.** What about the Activity (Rattus norvegicus [3]) of the same molecule?
**A.** Its Activity is 60.3 U/L.

**Q.** What about the Activity (Rattus norvegicus [4]) of the same molecule?
**A.** The Activity was “Non-Toxic”.

**Q.** What about the Activity (Mus musculus [5]) of the same molecule?
**A.** The Activity was 50%.

**Q.** What about the Activity (Rattus norvegicus [6]) of the same molecule?
**A.** Its Activity is “Non-Toxic”.

**Q.** And the Activity (Mus musculus [7])?
**A.** The Activity was 50%.

**Q.** What about the Activity (Rattus norvegicus [8]) of the same molecule?
**A.** Its Activity is 23.1%.

**Q.** And the Activity (Rattus norvegicus [9])?
**A.** Its Activity is 6.62 g/dL.

**Q.** What about the Activity (Rattus norvegicus [10]) of the same molecule?
**A.** The Activity was 142.5 mEq/L.

**Q.** And the Activity (Mus musculus [11])?
**A.** Its Activity is 67%.

**Q.** And the pKi (Carbonic anhydrase 1)?
**A.** The pKi was under 5.00.

**Q.** What about the Activity (Rattus norvegicus [12]) of the same molecule?
**A.** Its Activity is 96.5 U/L.

**Q.** And the Activity (Rattus norvegicus [13])?
**A.** The Activity was 84%.

**Q.** What about the pKi (Carbonic anhydrase 7) of the same molecule?
**A.** The pKi was 7.75.

**Q.** What about the Ratio Ki (Homo sapiens [14]) of the same molecule?
**A.** Its Ratio Ki is 527.

**Q.** And the pKi (Carbonic anhydrase 9)?
**A.** Its pKi is 5.78.

**Q.** And the Activity (Rattus norvegicus [15])?
**A.** Its Activity is 105.6 mEq/L.

**Q.** What about the Activity (Mus musculus [16]) of the same molecule?
**A.** The Activity was 67 - 70%.

**Q.** And the Activity (Rattus norvegicus [17])?
**A.** The Activity was 6.48 mg/dL.

**Q.** What about the Activity (Rattus norvegicus [18]) of the same molecule?
**A.** The Activity was 10 mg/dL.

**Q.** And the Activity (Rattus norvegicus [19])?
**A.** The Activity was 2.6%.

**Q.** What about the Activity (Mus musculus [20]) of the same molecule?
**A.** Its Activity is 60%.

**Q.** And the Activity (Rattus norvegicus [21])?
**A.** Its Activity is 622.3 ×10³ /mm3.

**Q.** And the Ratio Ki (Homo sapiens [22])?
**A.** Its Ratio Ki is 561.

**Q.** What about the Activity (Mus musculus [23]) of the same molecule?
**A.** The Activity was 50%.

**Q.** And the Activity (Rattus norvegicus [24])?
**A.** Its Activity is 67%.

**Q.** What about the Activity (Rattus norvegicus [25]) of the same molecule?
**A.** Its Activity is 12.2 g/dL.

**Q.** What about the Activity (Mus musculus [26]) of the same molecule?
**A.** Its Activity is 50%.

**Q.** And the Ratio Ki (Homo sapiens [27])?
**A.** The Ratio Ki was 93.

**Q.** What about the Activity (Rattus norvegicus [28]) of the same molecule?
**A.** Its Activity is 0.33%.

**Q.** And the Activity (Rattus norvegicus [29])?
**A.** Its Activity is 17%.

**Q.** And the Activity (Mus musculus [30])?
**A.** The Activity was “Non-Toxic”.

**Q.** What about the Activity (Rattus norvegicus [31]) of the same molecule?
**A.** Its Activity is 67 - 84%.

**Q.** What about the Activity (Rattus norvegicus [32]) of the same molecule?
**A.** The Activity was 4.33 mg/dL.

**Q.** And the Activity (Rattus norvegicus [33])?
**A.** Its Activity is “Non-Toxic”.
